“Also recorded” adds a separate entry of the source.
Columns and labels:
[1] = system: primary, human skin fibroblasts; assay: Cell cycle block in human skin fibroblasts (flow cytometry); assay type: cell-based
Procedure: Methods (Cell cycle and p21 western): The cell culture experiments were done using primary, human skin fibroblasts, one strain of which (BJ cells) was obtained from ATCC (American Type Culture Collection). […] For flow cytometry and p21 experiments, cells were plated at 0.5×10^6 cells/150 mm plate, and 24 hr later, drug molecules (4100 μM PrC-210, 600 μM cysteamine, 205 μM cysteamine analog, 0.4 μg/ml colcemid) were added to medium. […] (Cancer Research. 61(21):7754-62, 2001). As per the cited reference, cells were fixed, treated with RNAse, and stained with propidium iodide for flow cytometry, or cells were extracted, proteins electrophoresed, and probed with anti-p21 antibody (#SXM-30) for western blot analysis.

[2] = system: Cytoxan-induced alopecia in rat pups; assay: Cytoxan-induced alopecia in rat pups; assay type: in vivo
Procedure: Induction of alopecia by cytoxan (CTX). Lactating Sprague Dawley mother rats with rat pups were purchased from Harlan Sprague Dawley (Indianapolis, Ind.). The mother rats were given food and water ad libitum. The rats pups were tested in the model of chemotherapy-induced alopecia described by Hussein A. M. et al., Science: 249, 1564 (1990). Cytoxan (CTX), a chemotherapeutic widely used in the treatment of cancer, was used to induce alopecia in the rats. A common side effect of cytoxan treatment in patients is alopecia. Lyophilized vials of Cytoxan were obtained from Mead-Johnson. To produce CTX-induced alopecia, 11 day old rat pups, which are at the peak of coat growth, were injected i.p. with 30-35 μg of CTX/gm body weight. CTX was dissolved in water. By day 18 of life, the animals have shed virtually 100% of their coat leaving bare skin on their backs. Thus, topical application of protective drugs to the animal's back prior to the CTX insult provides a suitable test for prevention of chemotherapy-induced alopecia. A separate alopecia assay was also developed in which whole-body irradiation on day 11 of life was used as the insult. This assay is described in further detail in Example 12 which follows.
In the earliest studies with chemoprotective polyamines, the molecules were prepared in a topical delivery vehicle consisting of from 50-70% ethanol in water, depending on the solubility of the compound. The compounds in ethanol/water solution from 50-150 µl in volume were topically administered to the backs of the pups once per day before and after CTX challenge. Using a micropipette, the formulation was applied to an approximately 2 cm2 section of skin on the backs of the rat pups. Specifically, the pups were treated once daily for the 4-5 days before CTX challenge, once on the day of CTX challenge and once daily for 5 days afterwards. Control groups consisted of pups receiving only delivery vehicle. […]
In the earliest studies with chemoprotective polyamines, hair loss was evaluated using a modified alopecia-scoring index described by Chen G. et al., Int. […] In the later studies with aminothiols a simpler scoring scale was adopted in which coat density was scored on a 0-100 scale as “% of normal coat density.”
Method: To assess the ability of topical treatments to prevent Cytoxan-induced alopecia we used a published protocol (Hussein et al., Science. 249(4976):1564-6, 1990) in which 11 day old neonate rat pups (Sprague-Dawley) receive a total of 6 topical skin treatments of active agent(s) during the 5 hr before and 2 hr after a single ip dose of Cytoxan (32 ug/gm b.w.). […] The density of the rat coats in the topical treatment area was scored on day 18 of life for animals injected with Cytoxan.

[3] = system: supercoiled pUC19 plasmid; assay: Hydroxyl radical scavenging, plasmid DNA protection; assay type: biochemical; details: 0-70 mM, pH 6.5; even the lowest concentration tested; UV 2.5 min
Procedure: Method: 0.3 μg pUC19 plasmid was added to a 16 μl incubation containing Tris-EDTA buffer, then either PrC-210 (0-70 mM, pH 6.5) or buffer were added to the incubation. The polypropylene microtubes were then sealed and irradiated for 2.5 min at a distance of 80 cm from a UV lamp. Samples were then applied to 1% agarose gels and electrophoresed using methods known in the art.

Which “time to reversion to normal cell division after wash-out” value ([1]; change of cell culture medium) does the source give for `CNCC(CS)CNC` [PrC-210, 3-methylamino-2-methylaminomethyl-propane-1-thiol] here?
The value was at most 48 h.

And the “cell cycle block (phase)” value ([1]; log-phase human fibroblast cultures)?
Its value is “in the G1 phase of the cell cycle; also recorded: G1-specific cell cycle block; also recorded: reversible G1 cell cycle block”.

What about the “reversibility of cell cycle block” value ([1]; upon washout or removal of the drug) of the same compound?
The value was “reversible”.

And the “Alopecia Score (% Normal Coat Density in Topical Treatment Area)” value ([2]; 2000 mM PrC-210 alone, ip Cytoxan 32 ug/gm b.w., Experiment 552-555)?
Its value is 9%.

And the “effect in preventing Cytoxan-induced alopecia” value ([2]; neonate rats, three days topical resveratrol and/or topical PrC-210)?
The value was “weak effect”.

What about the “protection of supercoiled DNA from OH radical damage” value [3] of the same compound?
The value was “completely prevented damage to supercoiled DNA”.
